Measured values from US8686050B2, “Diglycidic ether derivative therapeutics and methods for their use” (British Columbia Cancer Agency Branch, priority 2008, dated 2014).
“Also recorded” adds a separate entry of the source. Counter-ions that a name gives are not always drawn.

Tests used:
[1] = test system: PC3 xenografts; assay: PC3 subcutaneous xenografts in non-castrated mice; assay type: in vivo, NOD-SCID male mice; details: 20 mg/kg body weight every 5 days, listed as PNG01-185-017-9-2, 20 mg/kg
Protocol: Six to eight-week old male athymic SCID mice were inoculated subcutaneously in the flank region via a 27-gauge needle with a 150 μl suspension of LNCaP or PC3 human prostate cancer cells (1×10^6 cells). The inoculations took place while the animal was under isofluorane anaesthesia. The tumor take rate is approximately 75%. Mice bearing tumors of 100 mm^3 were randomly assigned to treatment groups. Castration was performed as described below. Tumor volume (formula: L×W×H×0.5236) was measured in mice bearing LNCaP subcutaneous tumors that became palpable or visible and at least 40 mm^3. The animals were monitored daily and tumors were measured every 5 days.

[2] = General toxicity in xenograft-bearing mice (behavior, body weight, organ histology)
Protocol: For routine histology, major organs and xenografts were harvested upon completion of the experiment and were fixed in 10% neutral buffered formalin and then embedded in paraffin. Fixed sections were cut and stained with H&E. To determine possible effects of compounds on the proliferation rates and apoptosis in xenografts, Ki-67 immunostaining and the TUNEL assay was performed. […] Levels of AR were determined by immunohistochemistry or Western blot analysis.
LNCaP human prostate cancer cells express endogenous androgen receptor (AR) and prostate-specific antigen (PSA), and progress to androgen independence in castrated hosts. LNCaP cells (10^6/ml) were implanted subcutaneously into NOD-SCID male mice that were at least 8 weeks in age. The cells were suspended in 75 μl of RPMI medium 1640 (5% FBS) with 75 μl of Matrigel and injected into the flank region of the host under anesthesia. […] A total of five doses were given to the animal. Tumor volume and body weight were measured every 5 days.
IHC data was prepared by a commercial lab that was blinded to treatments.
PC3 cells were implanted subcutaneously into NOD-SCID male mice. […] Animals were treated every 5 days with a subcutaneous dose of 20 mg/kg body weight of PNG01-185-017-9-2 or matching volume of vehicle (control, DMSO). Tumor volume and body weight were measured every 5 days.

[3] = test system: VEGF; assay: VEGF staining of harvested LNCaP xenografts; assay type: in vivo, mice; details: harvested at day 25 from castrated hosts
From the text: Angiogenesis in prostate cancer is predominantly dependent upon vascular endothelial growth factor (VEGF). Testosterone is a potent inducer of VEGF in the prostate (Häggström et al 1999 J Urol. 161, 1620-1625) and re-expression of VEGF in androgen independent tumours is consistent with the re-expression of androgen-regulated genes (Gregory et al 1998 Cancer Res. 58, 5718-5724). Expression of VEGF is associated with androgen independence (Mitsiades et al 2001 Expert Opin Investig Drugs. 10, 1099-1115) and aggressive metastatic disease (Harper et al 1998 J Pathol. 186, 169-177; Balbay et al 1999 Clin Cancer Res. 5, 783-789; Melnyk et al 1999 J Urol. 161, 960-963).

[4] = molecular target: T1, Gal4 DBD-AR1-558 (AR NTD) (Homo sapiens, UniProt P10275); assay: Transactivation of the AR NTD (Gal4 DBD-AR1-558 with 5xGal4UAS-luciferase) in LNCaP cells; assay type: cell-based; details: LNCaP cells, 185-9-2 5 ug/ml=12 μM, bicalutamide 10 μM
T1 construct: cloning amino acids 1-558 of the human AR NTD into the C-terminus of Gal4 DBD; expressed in transfected cells; host or cells: LNCaP
T1 sequence (P10275 1-558): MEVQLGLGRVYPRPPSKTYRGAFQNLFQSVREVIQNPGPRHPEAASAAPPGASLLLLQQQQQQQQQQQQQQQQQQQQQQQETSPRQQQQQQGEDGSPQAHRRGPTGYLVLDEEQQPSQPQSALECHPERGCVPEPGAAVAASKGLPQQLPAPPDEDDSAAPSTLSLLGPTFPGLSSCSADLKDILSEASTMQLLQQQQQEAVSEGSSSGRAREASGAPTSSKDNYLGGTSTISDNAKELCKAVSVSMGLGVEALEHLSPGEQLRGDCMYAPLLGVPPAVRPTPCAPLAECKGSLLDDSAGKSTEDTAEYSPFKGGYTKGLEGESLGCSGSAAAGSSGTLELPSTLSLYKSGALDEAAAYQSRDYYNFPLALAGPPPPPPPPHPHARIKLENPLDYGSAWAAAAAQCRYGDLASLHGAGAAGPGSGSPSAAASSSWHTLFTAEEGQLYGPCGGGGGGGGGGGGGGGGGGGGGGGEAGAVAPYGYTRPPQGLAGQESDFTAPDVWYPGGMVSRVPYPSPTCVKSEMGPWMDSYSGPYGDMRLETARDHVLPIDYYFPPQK
From the text: These fractions were next tested for their ability to inhibit the AR NTD. […] Extracts identified above were screened by such assays as well as some compounds purchased from commercial suppliers.
Expression vectors for these chimeric proteins were cotransfected into LNCaP cells with a reporter gene containing the Gal4-binding site as cis-acting elements (p5×Gal4UAS-TATA-luciferase).

CC(C)(c1ccc(OCC(O)CO)cc1)c1ccc(OCC(O)CCl)cc1 (stereo not drawn) [185-9-2, BADGE.HCL.H2O]
PC3 xenograft tumor growth [1]: had a small effect on PC3 tumor growth but did not reduce tumor burden; also recorded: did not reduce tumors but did slightly slow the growth | body weight, LNCaP xenograft mice, intravenous ([2]; I.V. 50 mg/kg every other day): did not reduce body weight | body weight, LNCaP xenograft mice, intratumoral ([2]; day 0 versus day 25): did not reduce body weight | pathology review of lung, heart, liver, spleen, and kidney ([2]; i.v. 50 mg/kg every other day, 5 injections, H&E): showed no signs of toxicity | general toxicity indicated by animal behavior or body weight ([2]; mouse, in vivo, iv): not to cause general toxicity | VEGF protein in LNCaP xenografts [3]: decreased levels of vascular endothelial growth factor (VEGF) protein | VEGF protein in LNCaP xenografts ([3]; listed as PNG01-185-017-9-2): inhibited the expression of VEGF | FSK-induced transactivation of the AR NTD ([4]; FSK 50 μM): to baseline levels; also recorded: blocked | IL-6-induced transactivation of the AR NTD ([4]; IL-6 50 ng/ml): to baseline levels; also recorded: blocked
